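Interpolation was linear, between the two tested concentrations surrounding the appropriate level; five concentrations were tested over 48 hours in 96-well plates. Here, GI50 denotes the concentration required for 50% inhibition of growth.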 The source made the active and inactive calls. Rule as the data show it: active = GI50 up to about 1.1 µM and inactive = higher.
Tests used:
Experiment in all cases: NCI-60 cell line screen, 48 h
Malme-3M = test system: Malme-3M
HL-60 = test system: HL-60
XF498 = test system: XF498
MOLT-4 = test system: MOLT-4
NCI-H23 = test system: NCI-H23
BT-549 = test system: BT-549
NCI-H522 = test system: NCI-H522
RPMI-8226 = test system: RPMI-8226
DLD-1 = test system: DLD-1
K562 = test system: K562
ACHN = test system: ACHN
SNB-19 = test system: SNB-19
CCRF-CEM = test system: CCRF-CEM
OVCAR-5 = test system: OVCAR-5
HOP-62 = test system: HOP-62
OVCAR-3 = test system: OVCAR-3
RXF 393 = test system: RXF 393
KM12 = test system: KM12
SF-295 = test system: SF-295
M19-MEL = test system: M19-MEL
NCI-H226 = test system: NCI-H226
NCI/ADR-RES = test system: NCI/ADR-RES
DU-145 = test system: DU-145
DMS-114 = test system: DMS-114
HOP-92 = test system: HOP-92
HCT-116 = test system: HCT-116
HT-29 = test system: HT-29
HCT-15 = test system: HCT-15
OVCAR-4 = test system: OVCAR-4
PC-3 = test system: PC-3
EKVX = test system: EKVX
UACC-257 = test system: UACC-257
KM-20L2 = test system: KM-20L2
U-251 = test system: U-251
SF-539 = test system: SF-539
786-0 = test system: 786-0
SK-MEL-2 = test system: SK-MEL-2
LOX IMVI = test system: LOX IMVI
SN12C = test system: SN12C
SNB-75 = test system: SNB-75
TK-10 = test system: TK-10
A498 = test system: A498
SW-620 = test system: SW-620
SK-MEL-28 = test system: SK-MEL-28
HOP-18 = test system: HOP-18
UO-31 = test system: UO-31
HCC 2998 = test system: HCC 2998
A549 = test system: A549
OVCAR-8 = test system: OVCAR-8
SK-MEL-5 = test system: SK-MEL-5
DMS-273 = test system: DMS-273
SF-268 = test system: SF-268
NCI-H460 = test system: NCI-H460
SNB-78 = test system: SNB-78
SR = test system: SR
SK-OV-3 = test system: SK-OV-3
UACC-62 = test system: UACC-62
M14 = test system: M14
IGROV-1 = test system: IGROV-1
LXFL 529 = test system: LXFL 529
CAKI-1 = test system: CAKI-1
COLO 205 = test system: COLO 205

Measured: GI50

CCc1ccc(NCc2cc(OC)c(OC)c(OC)c2)cc1
0.0847 µM: HCT-15
active: Malme-3M 0.256 µM | HL-60 0.0603 µM | MOLT-4 0.159 µM | NCI-H23 0.532 µM | BT-549 < 0.01 µM | NCI-H522 0.109 µM | RPMI-8226 0.303 µM | DLD-1 0.592 µM | K562 0.0728 µM | SNB-19 0.902 µM | CCRF-CEM 0.158 µM | HOP-62 0.366 µM | OVCAR-3 0.123 µM | RXF 393 0.224 µM | KM12 0.0537 µM | SF-295 0.109 µM | M19-MEL 0.579 µM | NCI/ADR-RES < 0.0416 µM | DU-145 0.399 µM | DMS-114 0.586 µM | HOP-92 1.09 µM | HCT-116 0.122 µM | HT-29 0.105 µM | PC-3 0.186 µM | KM-20L2 0.388 µM
inactive: XF498 1.69 µM | ACHN 3.51 µM | OVCAR-5 4.9 µM | NCI-H226 4.65 µM | OVCAR-4 26.7 µM | EKVX 4.95 µM | UACC-257 17.2 µM

O=C(c1ccc(Cl)cc1)C1OC12C(=O)Nc1c(Cl)cc(Cl)cc12 (configuration not stated)
42.1 µM: HCT-15
inactive: U-251 76.7 µM | Malme-3M 71.9 µM | SF-539 75 µM | XF498 15.3 µM | 786-0 49 µM | NCI-H23 30.1 µM | SK-MEL-2 67.5 µM | LOX IMVI 39.4 µM | RPMI-8226 14.9 µM | DLD-1 87.3 µM | K562 22.3 µM | SN12C 54 µM | ACHN 92.9 µM | SNB-19 54.3 µM | CCRF-CEM 22.4 µM | OVCAR-5 > 100 µM | HOP-62 > 100 µM | OVCAR-3 21.2 µM | SNB-75 25.9 µM | TK-10 51.2 µM | A498 > 100 µM | KM12 48.6 µM | SF-295 46.3 µM | SW-620 40 µM | NCI-H226 28.3 µM | SK-MEL-28 94 µM | HOP-18 36.2 µM | UO-31 63.7 µM | HCC 2998 > 100 µM | A549 49.9 µM | HT-29 41.2 µM | EKVX 19.8 µM | OVCAR-8 23 µM | SK-MEL-5 37.5 µM | UACC-257 26.9 µM | DMS-273 65.5 µM | SF-268 51.9 µM | NCI-H460 50.8 µM | KM-20L2 67.5 µM

CC(C)Cc1cccc(C(C)C)c1NC(=O)CCC(=O)N/N=C1\C(=N/NC(=O)CCC(=O)Nc2c(C(C)C)cccc2C(C)C)C(c2ccc3c(c2)OCO3)Oc2ccccc21 (configuration not stated)
17.1 µM: HCT-15
inactive: U-251 35 µM | HL-60 34.2 µM | SF-539 97.7 µM | XF498 > 100 µM | MOLT-4 57.3 µM | NCI-H23 > 100 µM | SNB-78 94 µM | SK-MEL-2 > 100 µM | NCI-H522 19.5 µM | LOX IMVI 44.5 µM | RPMI-8226 59.2 µM | DLD-1 40.8 µM | K562 25 µM | SN12C 43.2 µM | ACHN 83 µM | SNB-19 91 µM | SR 55.7 µM | CCRF-CEM 28.8 µM | OVCAR-5 > 100 µM | HOP-62 71.9 µM | SNB-75 49.2 µM | RXF 393 34.9 µM | TK-10 > 100 µM | A498 > 100 µM | KM12 > 100 µM | SF-295 48 µM | SK-OV-3 > 100 µM | SW-620 46 µM | M19-MEL > 100 µM | NCI-H226 > 100 µM | SK-MEL-28 > 100 µM | UACC-62 78.3 µM | UO-31 43.6 µM | DMS-114 42.6 µM | HCC 2998 > 100 µM | M14 > 100 µM | HOP-92 > 100 µM | HCT-116 61.2 µM | A549 65.3 µM | IGROV-1 29.5 µM | HT-29 43.8 µM | LXFL 529 43.6 µM | CAKI-1 53.2 µM | COLO 205 > 100 µM | OVCAR-4 74.1 µM | EKVX 9.64 µM | OVCAR-8 69.3 µM | SK-MEL-5 > 100 µM | UACC-257 > 100 µM | DMS-273 76.9 µM | SF-268 67.8 µM | NCI-H460 27.9 µM | KM-20L2 > 100 µM

— ChEMBL document CHEMBL1201862, “PubChem BioAssay data set” (2004)
